Source: patent publication US6414158B1, “1,3,4-oxadiazine derivatives and their use as pesticides” (Bayer AKtiengesellschaft, priority 1996, dated 2002)

melting point: 125 to 128 °C
SMILES: CCN1C(=O)OCC(=O)N1Cc1ccc(Cl)nc1 [Example I-16, 4-(2-chloro-5-pyridylmethyl)-3-ethyl-1,3,4-oxadiazine-2,5-dione]
